According to publication PMC10316653 (iScience, 2023):
Like-named read-outs stand apart in the source and are kept apart here. *1 amine or outer side, *2 acyl side, *3 side chain or, on linkers, in order; H or OH if unused. Where a SMILES comes first, the peptide text is derived from it. Bridges are numbered along the chain shown (N, C = ends). [ ]: non-standard residue; d: D form. X1 = CC(=O)NC(C(=O)OC(C(C)C)C(N[*:1])C(=O)[*:2])C(O)C(C)C; PhLac = O=C(O)[CH](O)Cc1ccccc1; NMeT = CN[CH](C(=O)O)[CH](C)O; NMeA = CN[CH](C)C(=O)O; NMeDha = C=C(NC)C(=O)O

Experiments:
A2BAR [1] = biological target: T1, A2BAR (Rattus norvegicus, UniProt P29276); test: cAMP accumulation assay in H9C2 cells endogenously expressing the A2BAR; type: cell-based; conditions: for effect on PMA-induced cAMP accumulation: antagonist 1 µM
T1 sequence (P29276 1-332): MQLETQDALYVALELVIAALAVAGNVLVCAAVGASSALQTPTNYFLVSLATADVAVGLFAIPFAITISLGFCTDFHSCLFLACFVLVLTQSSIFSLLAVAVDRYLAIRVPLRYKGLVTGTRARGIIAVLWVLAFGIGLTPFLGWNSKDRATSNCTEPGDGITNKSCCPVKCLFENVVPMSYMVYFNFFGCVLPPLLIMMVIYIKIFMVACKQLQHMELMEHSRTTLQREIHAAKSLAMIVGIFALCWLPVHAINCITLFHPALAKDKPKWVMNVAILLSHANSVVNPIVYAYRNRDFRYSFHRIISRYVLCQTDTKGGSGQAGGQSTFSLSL

A2BAR [2] = biological target: T2, A2BAR (Homo sapiens, UniProt P29275); test: cAMP accumulation assay in naive HEK293 cells; type: cell-based
T2 sequence (P29275 1-332): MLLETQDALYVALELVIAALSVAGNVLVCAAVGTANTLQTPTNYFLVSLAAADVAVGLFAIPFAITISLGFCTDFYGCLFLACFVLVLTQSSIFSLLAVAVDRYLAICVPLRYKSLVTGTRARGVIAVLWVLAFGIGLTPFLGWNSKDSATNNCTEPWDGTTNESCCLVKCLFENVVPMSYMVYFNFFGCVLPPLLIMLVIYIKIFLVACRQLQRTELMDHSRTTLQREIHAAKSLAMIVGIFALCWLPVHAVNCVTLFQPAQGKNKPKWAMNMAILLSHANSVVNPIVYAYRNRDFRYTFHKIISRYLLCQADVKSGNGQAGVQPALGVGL

H9C2 cells = test: Intracellular calcium mobilization assay in H9C2 cells; type: cell-based, rat; conditions: for inhibition of UTP-induced calcium response: 1 μM pretreatment 20 min
A2BAR [3] = biological target: T2, A2BAR; test: cAMP accumulation assay in HEK293-A2B cells; type: cell-based; conditions: for effect on PKC-induced A2BAR activation (cAMP): inhibitor 20 min before PMA (Figure 10C)
ERK1/2 = ERK1/2 activity assay in H9C2 cells; type: cell-based, rat; conditions: for effect on PMA-induced ERK1/2 phosphorylation: 1 μM added 20 min before PMA 1 μM
A2BAR [4] = biological target: T2, A2BAR; test: Radioligand binding to membranes from HEK293-A2B cells; conditions: for displacement of specific binding of [3H]NECA (25 nM): membranes from HEK293-A2B cells, 1 μM
A2BAR [5] = biological target: T2, A2BAR; test: Intracellular calcium mobilization assay in HEK293-A2B cells; type: cell-based; conditions: for effect on NECA-induced intracellular calcium mobilization: 1 μM pretreatment 20 min
A2BAR [6] = biological target: T3, A2BAR (Mus musculus, UniProt Q60614); test: cAMP accumulation in NIH3T3 cells endogenously expressing the A2BAR; type: cell-based; conditions: 20 min
T3 sequence (Q60614 1-332): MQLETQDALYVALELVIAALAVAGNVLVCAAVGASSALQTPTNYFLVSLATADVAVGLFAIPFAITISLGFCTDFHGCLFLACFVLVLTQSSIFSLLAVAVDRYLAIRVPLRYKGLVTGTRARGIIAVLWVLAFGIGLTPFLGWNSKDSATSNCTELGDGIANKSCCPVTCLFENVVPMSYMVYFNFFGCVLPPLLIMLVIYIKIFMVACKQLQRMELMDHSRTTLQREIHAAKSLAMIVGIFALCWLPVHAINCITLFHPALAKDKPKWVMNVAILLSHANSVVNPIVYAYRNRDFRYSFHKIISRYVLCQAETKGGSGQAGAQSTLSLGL

recombinant rat A2BAR = biological target: T4, recombinant rat A2BAR (Rattus norvegicus, UniProt P29276); test: cAMP accumulation in H9C2 cells expressing the recombinant rat A2BAR; type: cell-based; conditions: H9C2 cells with rat A2BAR expression, 0.3 μg/well
T4 sequence (P29276 1-332): T1 sequence (P29276 1-332)

A2BAR [7] = biological target: T2, A2BAR; type: cell-based
A2BAR [8] = biological target: T2, A2BAR; test: cAMP accumulation in Gi-null HEK293 cells; type: cell-based; conditions: PMA 1 μM 40 min
A2BAR [9] = biological target: T2, A2BAR; test: cAMP accumulation in Gi-null HEK293-A2B cells; type: cell-based; conditions: read-out: Emax of cAMP accumulation (10 μM forskolin in HEK293-A2B = 100%)
adenylyl cyclase = test: Forskolin-stimulated cAMP accumulation in H9C2 cells; type: cell-based, rat; conditions: PMA 1 μM 40 min, forskolin 10 μM
A1AR = biological target: T5, A1AR (Rattus norvegicus, UniProt P25099); test: A1AR-mediated inhibition of forskolin-stimulated cAMP accumulation in H9C2 cells; type: cell-based
T5 sequence (P25099 1-326): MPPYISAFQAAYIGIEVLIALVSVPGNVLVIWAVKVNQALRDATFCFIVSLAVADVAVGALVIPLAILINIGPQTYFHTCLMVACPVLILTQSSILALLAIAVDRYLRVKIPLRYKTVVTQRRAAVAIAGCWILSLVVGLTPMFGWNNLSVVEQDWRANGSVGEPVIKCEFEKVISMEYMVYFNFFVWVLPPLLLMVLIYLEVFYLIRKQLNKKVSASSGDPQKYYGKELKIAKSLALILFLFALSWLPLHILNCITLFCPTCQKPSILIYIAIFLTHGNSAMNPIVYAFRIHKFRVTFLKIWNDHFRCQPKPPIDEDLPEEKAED

[10] = naive HEK293 cells, inhibitor 1 μM, PMA 1 μM, BAY 10 μM
[11] = HEK293-A2B cells treated with PMA 1 μM 40 min

N#Cc1c(N)nc(SCC(N)=O)c(C#N)c1-c1ccc(OCC2CC2)cc1 [BAY]
induction of cAMP accumulation (A2BAR [1]; H9C2 cells, agonist 20 min): induced robust cAMP accumulation

CN(C)C[C@H]1CCn2c(c(C3=C(c4cn(C)c5ccccc45)C(=O)NC3=O)c3ccccc32)C1 [RO320432]
effect on PKC (PMA)-induced enhancement of BAY-induced cAMP accumulation (A2BAR [2]; [10]): blocked PKC-induced enhancement

CCNC(=O)[C@H]1O[C@@H](n2cnc3c(N)ncnc32)[C@H](O)[C@@H]1O [NECA, adenosine-5′-N-ethyluronamide]
induction of calcium mobilization (H9C2 cells): did not induce calcium mobilization

CSc1nc(N)c2ncn([C@H]3[C@H](O)[C@H](O)[C@]4(COP(=O)([O-])OP(=O)([O-])[O-])C[C@H]34)c2n1.[Na+].[Na+].[Na+] [MRS2365, [[(1R,2R,3S,4R,5S)-4-[6-amino-2-(methylthio)-9H-purin-9-yl]-2,3-dihydroxybicyclo[3.1.0]hex-1-yl]methyl] diphosphoric acid monoester trisodium salt]
effect of pretreatment on A2BAR (NECA)-mediated cAMP accumulation (A2BAR [3]; HEK293-A2B cells, 1 μM, 20 min before NECA): did not show any effect

CCCCCCCCCCCCCC(=O)O[C@@H]1[C@@H](C)[C@@]2(O)[C@@H](C=C(CO)C[C@]3(O)C(=O)C(C)=C[C@@H]23)[C@@H]2C(C)(C)[C@]12OC(C)=O [PMA, phorbol 12-myristate 13-acetate]
enhancement of A2BAR agonist-induced cAMP accumulation (A2BAR [1]; H9C2 cells, PMA 1 nM pretreatment 40 min): 25%
Emax of cAMP accumulation relative to NECA (A2BAR [1]; naive H9C2 cells, 5 min (Figure S10)): about 20 % of NECA
maximal cAMP level (10 μM NECA = 100%) (A2BAR [1]; naive H9C2 cells, 20 min (Figure 7C)): 20.0 ± 0.36%
EC50 (A2BAR [1]; potency of enhancing effect on A2BAR-mediated cAMP accumulation, H9C2 cells): ~1 nM
Emax (A2BAR [2]; HEK293, read-out: maximal stimulation relative to Emax of NECA): < 10%
maximal agonist effect (10 μM NECA = 100%) (A2BAR [2]; naive HEK293 cells, 20 min (Figure 7D)): 7.36 ± 1.08%
enhancement of the function of BAY (cAMP accumulation) (A2BAR [2]; wild-type HEK293 cells, PMA 1 μM 40 min): 95%
EC50 (A2BAR [3]; EC50, cAMP accumulation, HEK293-A2B cells, incubated 60 min): 56.4 nM
effect of pretreatment on NECA- or BAY-induced cAMP accumulation (A2BAR [3]; HEK293-A2B cells, PMA 40 min): raised the basal cAMP level but not the Emax
Emax (A2BAR [3]; read-out: activation Emax (Emax of NECA = 100%)): 84.7%
ERK1/2 phosphorylation (ERK1/2; PMA 1 μM, sustained over 30 min): > 300 % above baseline
effect of treatment on agonist [3H]NECA binding (A2BAR [4]; [11]): significantly increased agonist binding
effect of treatment on antagonist [3H]DPCPX binding (A2BAR [4]; [11]): did not affect
displacement of specific binding of [3H]NECA (25 nM) (A2BAR [4]): 1.6 ± 1.2%
inhibition of UTP-induced calcium response (H9C2 cells): completely inhibited
induction of calcium mobilization (A2BAR [5]): did not induce calcium mobilization
effect on NECA-induced intracellular calcium mobilization (A2BAR [5]): inhibited
cAMP accumulation versus NECA = 100% (A2BAR [6]): 34.9 ± 7.7%
maximal cAMP level (10 μM NECA = 100%) (recombinant rat A2BAR): 65.4 ± 8.0%
Emax (A2BAR [7]; HEK293, read-out: Emax of cAMP accumulation (10 μM forskolin = 100%)): 49.3 ± 4.6%
maximal agonist effect (10 μM NECA = 100%) (A2BAR [7]; HEK293 cells with recombinant human A2BAR expression, 0.3 μg/well): 35.5 ± 5.0%
enhancement of the function of BAY (cAMP accumulation) (A2BAR [8]): 37%
Emax (A2BAR [9]): 19.3 ± 3.1%
effect of pretreatment on forskolin-stimulated cAMP accumulation (adenylyl cyclase): did not inhibit or enhance

CCCn1c(=O)[nH]c2nc(-c3ccc(S(=O)(=O)N4CCN(c5ccc(Cl)cc5)CC4)cc3)[nH]c2c1=O [PSB603]
effect on PMA-induced cAMP accumulation (A2BAR [1]; naive H9C2 cells): inhibited
effect on PMA-induced ERK1/2 phosphorylation (ERK1/2): not affected
effect on NECA-induced intracellular calcium mobilization (A2BAR [5]): inhibited

CC(C)[C@H]1C(=O)N[C@H](CO)Cc2cc(NC(=O)/C=C/C=C/c3ccc(C(F)(F)F)cc3)ccc2N1C [TPPB]
effect of pretreatment on BAY-induced cAMP accumulation (A2BAR [2]; HEK293 cells, TPPB 1 µM 40 min): also enhanced the function of BAY

C=C1C(=O)NC(C)C(=O)N(C)C(C)C(=O)NC(C(OC(=O)C(NC(C)=O)C(O)C(C)C)C(C)C)C(=O)N(C)C(C(C)OC)C(=O)OC(C)C(NC(C)=O)C(=O)OC(Cc2ccccc2)C(=O)N1C (stereo not shown) [YM254890] (Ac-T[PhLac][NMeDha]A[NMeA][X1][NMeT](Me); ester 1-C; configuration not given here)
inhibition of UTP-induced calcium response (H9C2 cells): completely inhibited

O=c1ccn([C@@H]2O[C@H](COP(=O)(O)OP(=O)(O)OP(=O)(O)O)[C@@H](O)[C@H]2O)c(=O)[nH]1 [UTP]
induction of calcium mobilization (H9C2 cells): induced a robust calcium response

CCCn1c(=O)c2[nH]c(-c3ccc(OCC(=O)Nc4ccc(C#N)cc4)cc3)nc2n(CCC)c1=O [MRS1754]
effect on PMA-induced cAMP accumulation (A2BAR [1]; naive H9C2 cells): inhibited
KB against BAY more potent than IC50 against PKC (A2BAR [3]; HEK293-A2B cells): over 100 fold
displacement of specific binding of [3H]NECA (25 nM) (A2BAR [4]): 100%

O=S(=O)(NCCNC/C=C/c1ccc(Br)cc1)c1cccc2cnccc12 [H89]
effect on PMA enhancement of cAMP accumulation (A2BAR [2]; HEK293 cells, H89 10 μM, PMA 1 μM): unaffected
effect on PMA-induced ERK1/2 phosphorylation (ERK1/2): not affected

OC1C(CCl)OC(n2cnc3c(NC4CC5CCC4C5)ncnc32)C1O (stereo not shown) [Cl-ENBA]
inhibited cAMP accumulation stimulated by forskolin (A1AR; 1 μM, forskolin 10 μM): neither
inhibition of forskolin's effect on cAMP (A1AR; range of concentrations (Figure S1)): unable to inhibit forskolin’s effect

CN(C)CCCn1cc(C2=C(c3c[nH]c4ccccc34)C(=O)NC2=O)c2ccccc21 [GF109203X]
remaining enhancement (A2BAR [2]; naive HEK293 cells, in the presence of 1 μM GF109203X): 26%
effect on PKC (PMA)-induced enhancement of BAY-induced cAMP accumulation (A2BAR [2]; [10]): blocked PKC-induced enhancement
inhibition of PKC-induced enhancement of BAY-induced cAMP accumulation (A2BAR [2]; [10]): 74%
effect on PKC-induced A2BAR activation (cAMP) (A2BAR [3]; HEK293-A2B cells): significantly inhibited

COc1ccc2c(c1)c(C1=C(c3c[nH]c4ccccc34)C(=O)NC1=O)cn2CCCN(C)C [GO6983]
effect on BAY-induced cAMP accumulation (A2BAR [1]; H9C2 cells, 1 μM, no PMA): did not affect BAY-induced cAMP accumulation
effect on PKC (PMA)-induced enhancement of BAY-induced cAMP accumulation (A2BAR [2]; [10]): blocked PKC-induced enhancement
effect on PKC- and NECA-induced cAMP accumulation (A2BAR [3]; HEK293-A2B cells, GO6983 1 μM): blocked PKC- but not NECA-induced cAMP accumulation
effect on PKC-induced A2BAR activation (cAMP) (A2BAR [3]; HEK293-A2B cells): significantly inhibited
effect on PMA-induced ERK1/2 phosphorylation (ERK1/2): diminished
effect on PMA inhibition of UTP calcium response (H9C2 cells; GO6983 1 μM 20 min before PMA 1 μM): completely reversed
effect on PMA inhibition of NECA-induced calcium mobilization (A2BAR [5]; GO6983 1 μM before PMA 1 μM): completely blocked
